According to patent US9567319B2, “Compound having higher inhibitory activity on protein kinase G and preparation method thereof” (Jenkem Technology Co., Ltd., (Tianjin), priority 2014, dated 2017):

Test: Test of water solubility of the compounds
Conditions: for Volume of added water: about 0.1 g sample, water added until dissolved; for solubility: water; for water solubility, times higher than that of compound 46: relative to compound 46 (parent compound)
Description: At room temperature, about 0.1 g of each sample to be tested (solid materials should be ground as powder) was added to a 10 mL cylinder with a ground glass stopper. Water was gradually added. After each addition of 0.5 mL water, the resulting solution was stirred for 10 min for mixing, and was then visually examined for the presence of any undissolved sample. If there still exists undissolved sample or undissolved portions of the sample after 10 mL water was added, the test would be continued in a 100 mL cylinder.

Row | SMILES | Volume of added water (room temperature) [mL] | solubility (thermodynamic from solid) [µg/mL] | solubility (room temperature) [µg/mL] | water solubility, times higher than that of compound 46
1 | COc1ccc(OCCOCCO)c(C(=O)c2ccc(C(=O)N[C@@H]3CNC[C@H]3NC(=O)c3ccc4cn[nH]c4c3)cc2)c1F.Cl [JK-M02H, (3R,4R)-3-{4-[2-fluoro-3-methoxy-6-(5-hydroxy-3-oxapentan-1-oxy)]benzoyl}benzamido-4-(1H-indazole-6-carboxamido)pyrrolidine hydrochloride] | 12.5 | 8000 | – | –
2 | CCCOCCOCCOc1ccc(OC)c(F)c1C(=O)c1ccc(C(=O)N[C@@H]2CNC[C@H]2NC(=O)c2ccc3cn[nH]c3c2)cc1.Cl [JK-M02P, (3R,4R)-3-{4-[2-fluoro-3-methoxy-6-(4,7-dioxanonan-9-oxy)]benzoyl}benzamido-4-(1H-indazole-6-carboxamido)pyrrolidine hydrochloride] | 22.0 | 4500 | – | –
3 | COCCOCCOCCOCCOCCOCCOCCOc1ccc(OC)c(F)c1C(=O)c1ccc(C(=O)N[C@@H]2CNC[C@H]2NC(=O)c2ccc3cn[nH]c3c2)cc1.Cl [JK-M07M, (3R,4R)-3-{4-[2-fluoro-3-methoxy-6-(2,5,8,11,14,17,20-heptaoxadocosan-22-oxy)]benzoyl}benzamido-4-(1H-indazole-6-carboxamido)pyrrolidine hydrochloride] | 7.5 | – | 13300 | –
4 | CCCOCCOCCOc1ccc(F)c(F)c1C(=O)c1ccc(C(=O)N[C@@H]2CNC[C@H]2NC(=O)c2ccc3cn[nH]c3c2)cc1.Cl [JK-02P, (3R,4R)-3-{4-[2,3-difluoro-6-(3,6-dioxanonan-1-oxy)]benzoyl}benzamido-4-(1H-indazole-6-carboxamido)pyrrolidine hydrochloride] | 22.5 | 4400 | – | about 3 times
5 | COCCOCCOCCOc1ccc(F)c(F)c1C(=O)c1ccc(C(=O)N[C@@H]2CNC[C@H]2NC(=O)c2ccc3cn[nH]c3c2)cc1.Cl [JK-03M, (3R,4R)-3-{4-[2,3-difluoro-6-(2,5,8-trioxadecan-10-oxy)]benzoyl}benzamido-4-(1H-indazole-6-carboxamido)pyrrolidine hydrochloride] | 16.5 | – | 6100 | about 4 times
